Structures are written as SMILES.

We go through three compounds from patent US20230058189A1, “QUINOLIN-4-ONE AND 4(1H)-CINNOLINONE COMPOUNDS AND METHODS OF USING SAME” (Frequency Therapeutics, Inc., priority 2019, published 2023).

The nature of this data set: Caco-2 cell permeability assay. The class given is in vitro ADME. The following applies: human, pH 7.4, approximate values; for efflux ratio at 2 h, 10 µM: Caco-2, Papp (B-A)/Papp (A-B); for Papp A→B at 2 h, 10 μM: Caco-2, apical to basolateral. On the procedure:
A Caco-2 cell permeability assay can be used for in vitro prediction of drug permeability and absorption, an important feature for a compound to be useful for methods described herein. The apparent permeability (Papp) of the compounds of the present disclosure were determined in Caco-2 cells to measure the rate of drug transport per surface area of the cell membrane. Further the efflux ratios of the compounds of the present disclosure were measured in Caco-2 cells to determine the apparent permeability coefficient in basolateral to apical direction with respect to the apparent permeability coefficient in apical to basolateral direction.
50 μL and 25 mL of cell culture medium were added to each well of the Transwell insert and reservoir, respectively. The HTS transwell plates were incubated at 37° C., 5% CO2 for 1 hour before cell seeding. Caco-2 cells were diluted to 6.86×10^5 cells/mL with culture medium and 50 μL of cell suspension were dispensed into the filter well of the 96-well HTS Transwell plate. Cells were cultivated for 14-18 days in a cell culture incubator at 37° C., 5% CO295% relative humidity. Cell culture medium was replaced every other day, beginning no later than 24 hours after initial plating.
Medium was removed from the reservoir and each Transwell insert and replaced with prewarmed fresh culture medium. Transepithelial electrical resistance (TEER) across the monolayer was measured using Millicell Epithelial Volt-Ohm measuring system (Millipore, USA). The Plate was returned to the incubator once the measurement was done. The TEER value was calculated according to the following equation: TEER measurement (ohms)×Area of membrane (cm^2)=TEER value (ohm·cm^2).
To prepare the HBSS (25 mM HEPES, pH 7.4), accurately weigh 5.958 g of HEPES and 0.35 g sodium hydrogen carbonate and add into 900 mL of pure water, then sonicate to dissolve the content. Transfer 100 mL of 10× HBSS into the solution, and place the solution on a stirrer, slowly adjust pH with sodium hydrate to 7.4, following with filtering. Add 6 μL of stock solution (10 mM) of test compound or control compound to 24 μL of DMSO into the same well to obtain 2 mM stock solutions. Transfer 3 μL of 2 mM solution into 597 μL of transport buffer in one 96 well plate to prepare the 10 μM compound working solution. Shake the plate at 1000 rpm for 10 min. The final concentration of DMSO in the incubation system was 0.5%. Metoprolol, erythromycin, and cimetidine were used as control compounds.
Assays can be conducted using Caco-2 cells to assay transport of a compound or composition For example, Caco-2 plates prepared as described above were removed from the incubator. Monolayers were washed twice with pre-warmed HBSS (25 mM HEPES, pH 7.4), then the plates were incubated at 37° C. for 30 minutes. To determine the rate of drug transport in the apical to basolateral direction, 108 μL of the working solution was added to the Transwell insert (apical compartment), and 8 μL sample was immediately transferred from the apical compartment to 72 μL transport buffer and 240 μL of acetonitrile containing IS (100 nM alprazolam, 200 nM caffeine and 100 nM tolbutamide) in a new 96-well plate as the initial donor sample (A-B). The samples were then vortexed at 1000 rpm for 10 minutes. The wells in the receiver plate (basolateral compartment) were filled with 300 μL of transport buffer. To determine the rate of drug transport in the basolateral to apical direction, 308 μL of the working solution were added to the receiver plate wells (basolateral compartment), and 8 μL sample was immediately transferred from the basolateral compartment to 72 μL transport buffer and 240 μL of acetonitrile containing IS (100 nM alprazolam, 200 nM caffeine and 100 nM tolbutamide) into a new 96-well plate as the initial donor sample (B-A), then Vortexed at 1000 rpm for 10 minutes. The Transwell insert (apical compartment) was filled with 100 μL of transport buffer. […]

Regarding `CCn1cc(C(=O)O)c(=O)c2c(N)c(F)c(N[C@@H]3CC[C@@H]3c3ccccc3)cc21` (relative stereo) [Compound I-14], the efflux ratio – broadly, the permeability from basolateral to apical divided by that in the opposite direction, in the common usage – at 2 h, 10 µM stood at 0.58 and the apparent permeability from apical to basolateral (Papp A→B) (commonly how fast a substance crosses the layer from the apical side) at 2 h, 10 μM came to 8.6 ×10⁻⁶ cm/s.
As to `CCn1cc(C(=O)O)c(=O)c2c(N)c(F)c(N[C@H]3CC[C@H](N[C@@H]4C[C@H]4c4ccccc4)CC3)cc21` (relative stereo) [Compound I-27], the efflux ratio at 2 h, 10 µM was 1.96 and the Papp A→B at 2 h, 10 μM came to 0.94 ×10⁻⁶ cm/s.
In the same order, the values of `CCn1cc(C(=O)O)c(=O)c2c(N)c(F)c(N3CCC(N[C@@H]4C[C@H]4c4ccccc4)CC3)cc21` (relative stereo) [Compound I-26] are 0.85 and 7.9 ×10⁻⁶ cm/s.
